Assay results from US20050106305A1, “Beverage compositions comprising monatin and methods of making same” (Cargill, Inc., priority 2003, published 2005).
Where two headings read alike, the source gives them in different places.

What was measured:
[1] = Sensory evaluation of soft drinks (lemon/lime, orangeade, cola); assay type: in vivo; conditions: Cola; aspartame 550 ppm, sucralose 220 ppm, R,R monatin 45 ppm
Method: Beverages (cola, lemon-lime and orange) were formulated and sweetened with aspartame, sucralose or R,R monatin. Qualitative evaluation was carried out.
The term “throw” refers to dilution in water. For example, a throw of “1+4” means 1 part concentrate formulation to 4 parts water. Thus, if a concentrate formulation includes 0.021% wt/vol (i.e., 210 ppm) of R,R monatin, for example, a throw of 1+4 makes a diluted beverage containing 42 ppm (210 ppm/5) R,R monatin.
Final ready-to-drink beverages (after throw) contained sweetener concentrations as follows:
Evaluation of these soft drinks was carried out by a panel (n=6) of assessors who evaluated each set of drinks on separate tasting occasions.

[2] = Sensory stability of monatin and aspartame at pH 2.5, 3.0, 4.0 at 40° C.; assay type: physicochemical; conditions: for Rate constant (k) of sweetness loss / half-life: pseudo-first order assumed; for SEV / Retention of Sweetness: stored 40° C., monatin ~55 ppm, aspartame 400 ppm; for half-life: phosphate/citrate buffer, read-out: Half-life (t½) of sweetness loss (converted)
Method: The sensory stability of monatin solutions prepared at pH 2.5, 3.0 and 4.0 and stored at 40° C. was monitored for 100 days. Loss of sweetness from these solutions was compared with the losses of sweetness from aspartame solutions prepared and stored under identical conditions.
The sensory stability of monatin (8% SEV, ˜55 ppm, synthetic blend containing approximately 96% of the 2R,4R/2S, 4S enantiometric pair and 4% of the 2R,4S/2S,4R enantiometric pair) in phosphate/citrate buffers having a pH of 2.5, 3.0, and 4.0 was examined after storage at 40° C. The stability of monatin was compared to that of aspartame (400 ppm) in the same buffers. Three sucrose reference solutions were prepared in the same phosphate/citrate buffers as the monatin and aspartame solutions. All prepared solutions were stored in the dark.
Buffer compositions: pH 2.5 Phosphoric acid (75% solution) 0.127% (w/v) Tri-sodium citrate monohydrate 0.005% (w/v) • pH 3.0 Phosphoric acid (75% solution) 0.092% (w/v) Tri-sodium citrate monohydrate 0.031% (w/v) • pH 4.0 Phosphoric acid (75% solution) 0.071% (w/v) Tri-sodium citrate monohydrate 0.047% (w/v)
The sweetness of each sweetener relative to sucrose was assessed in duplicate by a panel (n=8) of trained sensory evaluators experienced in the sweetness estimation procedure. All samples (in the same buffers) were served in duplicate at a temperature of 22° C.±1° C. Monatin (test) solutions, coded with 3 digit random number codes were presented individually to panelists, in random order. Sucrose reference standards, ranging from 4.0-10.0% (w/v) sucrose, increasing in steps of 0.5% (w/v) sucrose were also provided. Panelists were asked to estimate sweetness by comparing the sweetness of the test solution to the sucrose standards. This was carried out by taking 3 sips of the test solution, followed by a sip of water, followed by 3 sips of sucrose standard followed by a sip of water, etc. Panelists were encouraged to estimate the sweetness to one decimal place, e.g., 6.8, 8.5. A five minute rest period was imposed between evaluating the test solutions. Panelists were also asked to rinse well and eat a cracker to reduce any potential carry over effects.
If a pseudo-first order breakdown reaction is assumed, a plot of logn percentage retention versus time (logn%RTN v. t) allows estimation of the half-life (t½) and rate constant (k) of sweetness loss under any given set of conditions. In so doing, the kinetics of monatin and aspartame sweetness loss may be summarized as follows in Table 25.

[3] = Taste profiling of lemon/lime carbonates and colas; assay type: in vivo; conditions: HFCS 10%, aspartame 500 ppm, sucralose 200 ppm, blends 30.8 ppm/5.0%; for Average Score: score 1, poor-5, good, sucrose 10%
Method: Cola and lemon/lime beverages were prepared using the following formulations and sweetened with sucrose, HFCS (55% fructose), aspartame, sucralose, monatin (racemic mix described in Example 14), monatin/sucrose, or monatin/HFCS. One part of syrup was added to 5.5 parts carbonated water and evaluated.
Assessments were carried out ‘double blind’ by a panel of trained tasters. The sucrose-sweetened product was identified as the control and all other products randomly coded. Panelists were asked to assess the randomly coded sample relative to the control for the following attributes:
Panelists also were asked assign a score (1; poor-5; good) for the quality of the sweetener system. A summary of the comments generated together with the average score awarded is presented in Tables 12 and 13 for lemon/lime carbonates and colas, respectively. […] Blends of monatin/carbohydrate rated higher. In the cola, monatin was similar to aspartame.

[4] = cola, sucrose 10% (control), monatin 80 ppm
[5] = lemon/lime carbonate, sucrose 10% (control), monatin 67 ppm

In the case of `NC(CC(O)(Cc1c[nH]c2ccccc12)C(=O)O)C(=O)O` (racemic) [Monatin, 2-hydroxy-2-(indol-3-ylmethyl)-4-aminoglutaric acid], the “Comments (sensory evaluation)” value [1] was “Overall, judged quite similar qualitatively”, the “Sweetness Retained” value ([2]; after 100 days storage at pH 2.5 at 40° C.) was 29% and the “Sweetness Retained” value ([2]; after 100 days storage at pH 3.0 at 40° C.) was 58%. For the same compound, the “Sweetness Retained” value ([2]; after 100 days storage at pH 4.0 at 40° C.) was 78%, the “Rate constant (k) of sweetness loss” value ([2]; pH 2.5, 40° C.) was 0.011 day⁻¹ and the SEV ([2]; pH 2.5 buffer, day 0) was 7.35 % sucrose. For the same compound, the “Retention of Sweetness” value ([2]; pH 2.5 buffer, day 1) was 93.3%, the SEV ([2]; pH 2.5 buffer, day 1) was 6.86 % sucrose and the “Retention of Sweetness” value ([2]; pH 2.5 buffer, day 2) was 91.2%. The SEV ([2]; pH 2.5 buffer, day 2) was 6.70 % sucrose, the “Retention of Sweetness” value ([2]; pH 2.5 buffer, day 3) was 88.4% and the SEV ([2]; pH 2.5 buffer, day 3) was 6.50 % sucrose. For the same compound, the “Retention of Sweetness” value ([2]; pH 2.5 buffer, day 4) was 85.2%, the SEV ([2]; pH 2.5 buffer, day 4) was 6.26 % sucrose and the “Retention of Sweetness” value ([2]; pH 2.5 buffer, day 7) was 82.7%. For the same compound, the SEV ([2]; pH 2.5 buffer, day 7) was 6.08 % sucrose, the “Retention of Sweetness” value ([2]; pH 2.5 buffer, day 8) was 81.4% and the SEV ([2]; pH 2.5 buffer, day 8) was 5.98 % sucrose. The “Retention of Sweetness” value ([2]; pH 2.5 buffer, day 9) was 80.1%, the SEV ([2]; pH 2.5 buffer, day 9) was 5.89 % sucrose and the “Retention of Sweetness” value ([2]; pH 2.5 buffer, day 11) was 78.6%. For the same compound, the SEV ([2]; pH 2.5 buffer, day 11) was 5.78 % sucrose, the “Retention of Sweetness” value ([2]; pH 2.5 buffer, day 50) was 62.7% and the SEV ([2]; pH 2.5 buffer, day 50) was 4.61 % sucrose. For the same compound, the “Retention of Sweetness” value ([2]; pH 2.5 buffer, day 100) was 28.6%, the SEV ([2]; pH 2.5 buffer, day 100) was 2.10 % sucrose and the “Rate constant (k) of sweetness loss” value ([2]; pH 3.0, 40° C.) was 0.006 day⁻¹. The SEV ([2]; pH 3.0 buffer, day 0) was 7.08 % sucrose, the “Retention of Sweetness” value ([2]; pH 3.0 buffer, day 1) was 99.6% and the SEV ([2]; pH 3.0 buffer, day 1) was 7.05 % sucrose. For the same compound, the “Retention of Sweetness” value ([2]; pH 3.0 buffer, day 2) was 93.2%, the SEV ([2]; pH 3.0 buffer, day 2) was 6.60 % sucrose and the “Retention of Sweetness” value ([2]; pH 3.0 buffer, day 3) was 91.4%. The SEV ([2]; pH 3.0 buffer, day 3) was 6.47 % sucrose, the “Retention of Sweetness” value ([2]; pH 3.0 buffer, day 4) was 91.6% and the SEV ([2]; pH 3.0 buffer, day 4) was 6.49 % sucrose. For the same compound, the “Retention of Sweetness” value ([2]; pH 3.0 buffer, day 7) was 85.3%, the SEV ([2]; pH 3.0 buffer, day 7) was 6.04 % sucrose and the “Retention of Sweetness” value ([2]; pH 3.0 buffer, day 8) was 83.8%. For the same compound, the SEV ([2]; pH 3.0 buffer, day 8) was 5.93 % sucrose, the “Retention of Sweetness” value ([2]; pH 3.0 buffer, day 9) was 83.1% and the SEV ([2]; pH 3.0 buffer, day 9) was 5.88 % sucrose. For the same compound, the “Retention of Sweetness” value ([2]; pH 3.0 buffer, day 11) was 83.1%, the SEV ([2]; pH 3.0 buffer, day 11) was 5.88 % sucrose and the “Retention of Sweetness” value ([2]; pH 3.0 buffer, day 50) was 72.3%. For the same compound, the SEV ([2]; pH 3.0 buffer, day 50) was 5.12 % sucrose, the “Retention of Sweetness” value ([2]; pH 3.0 buffer, day 100) was 57.9% and the SEV ([2]; pH 3.0 buffer, day 100) was 4.10 % sucrose. For the same compound, the “Rate constant (k) of sweetness loss” value ([2]; pH 4.0, 40° C.) was 0.003 day⁻¹, the SEV ([2]; pH 4.0 buffer, day 0) was 7.40 % sucrose and the “Retention of Sweetness” value ([2]; pH 4.0 buffer, day 3) was 95.7%. The SEV ([2]; pH 4.0 buffer, day 3) was 7.08 % sucrose, the “Retention of Sweetness” value ([2]; pH 4.0 buffer, day 8) was 86.8% and the SEV ([2]; pH 4.0 buffer, day 8) was 6.42 % sucrose. The “Retention of Sweetness” value ([2]; pH 4.0 buffer, day 11) was 85.9%, the SEV ([2]; pH 4.0 buffer, day 11) was 6.36 % sucrose and the “Retention of Sweetness” value ([2]; pH 4.0 buffer, day 17) was 82.4%. For the same compound, the SEV ([2]; pH 4.0 buffer, day 17) was 6.10 % sucrose, the “Retention of Sweetness” value ([2]; pH 4.0 buffer, day 24) was 84.5% and the SEV ([2]; pH 4.0 buffer, day 24) was 6.25 % sucrose. For the same compound, the “Retention of Sweetness” value ([2]; pH 4.0 buffer, day 50) was 82.9%, the SEV ([2]; pH 4.0 buffer, day 50) was 6.14 % sucrose and the “Retention of Sweetness” value ([2]; pH 4.0 buffer, day 100) was 78.4%. For the same compound, the SEV ([2]; pH 4.0 buffer, day 100) was 5.80 % sucrose, the half-life ([2]; pH 2.5, 40° C.) was 65 days and the half-life ([2]; pH 3.0, 40° C.) was 115 days. The half-life ([2]; pH 4.0, 40° C.) was 230 days, the Aftertaste [3, 4] was “Some lingering” and the Mouthfeel [3, 4] was “Thinner than control”. For the same compound, the Aftertaste [3, 5] was “Quite clean, slight”, the Mouthfeel [3, 5] was “Slightly less” and the “Sweetness Profile” value [3, 5] was “Slight delay in onset -”. The “Average Score” value ([3]; cola, monatin 80 ppm) was 2.9 and the “Average Score” value ([3]; lemon/lime carbonate, monatin 67 ppm) was 4.0.
